For 25 molecules, inhibition and CC50 results are on record in ChEMBL document CHEMBL5385893, “Bestatin analogs-4-quinolinone hybrids as antileishmanial hits: Design, repurposing rational, synthesis, in vitro and in silico studies” (Eur J Med Chem, 2023).

Calls of active or inactive are those of the source. The calls are words filed in the database; no cut-off is given here.

The test system of series [1] is Leishmania donovani. The series is described as follows: Antileishmanial activity against promastigotes-based model of Leishmania donovani MHOM/SD/62/1S-CL2D assessed as growth inhibition by measuring metabolism of resazurin to resorufin by aerobic respiration at 25 uM measured after 3 days relative to control. Conditions: for inhibition: time 3.0 day; for inhibition at 25 µM: 72 h, time 3 day. The series is classed as functional. In general terms: The colour change of resazurin is a common sign of viable cells or microbes.

The subject of series [2] is Leishmania donovani. The series is described as follows: Antileishmanial activity against promastigotes-based model of Leishmania donovani MHOM/SD/62/1S-CL2D assessed as growth inhibition by measuring metabolism of resazurin to resorufin by aerobic respiration at 50 uM measured after 3 days relative to control. It is filed as functional. As to conditions: for inhibition at 50 µM: 72 h, time 3 day; for inhibition: time 3.0 day.

A short description of series [3]: Cytotoxicity against human THP-1 cells assessed as cell death by measuring metabolism of resazurin to resorufin measured after 3 days. Conditions: time 3 day. The series is classed as toxicity, cell-based.
A short description of series [4]: Cytotoxicity against human HEK293T cells assessed as cell death by measuring metabolism of resazurin to resorufin measured after 3 days. Conditions: time 3 day. The series is classed as toxicity, cell-based, HEK-293T.

Usually inhibition stands for the relative decrease from the control value, in per cent. For the molecule `COc1ccc(CNC(=O)C(=O)[C@H](Cc2ccccc2)NC(=O)c2[nH]c3ccccc3c(=O)c2C)cc1OC`, the inhibition result with Leishmania donovani [1] was “inactive”. Besides, in the series with Leishmania donovani [2], the inhibition at 50 µM was 38%.

For orientation: CC50 means the concentration that lowers cell viability or growth by half. For the molecule `Cc1c(C(=O)N[C@@H](Cc2ccccc2)C(=O)C(=O)NCCc2ccccc2)nc2ccccc2c1O`, the CC50 at 72 h in series [3] is more than 200 µM; in series [4] it was 107 µM. Further, in the series with Leishmania donovani [1], the inhibition at 25 µM is 38%. Also, the inhibition at 50 µM in the series with Leishmania donovani [2] came out at 50%.

Turning to `Cc1c(C(=O)N[C@@H](Cc2ccccc2)[C@@H](O)C(=O)NC(C)C)[nH]c2ccccc2c1=O`, in the series on Leishmania donovani [1], the inhibition result was “inactive”. Besides, the inhibition at 50 µM with Leishmania donovani [2] was 4%.

With `Cc1c(C(=O)N[C@@H](Cc2ccccc2)C(=O)C(=O)NCc2ccccc2)[nH]c2ccccc2c1=O`, the inhibition at 25 µM with Leishmania donovani [1] worked out at 3%. In addition, in the series on Leishmania donovani [2], the inhibition at 50 µM amounted to 22%.

`Cc1c(C(=O)N[C@@H](Cc2ccccc2)C(=O)C(=O)NCCc2ccccn2)[nH]c2ccccc2c1=O`: the inhibition result with Leishmania donovani [1] and in the series on Leishmania donovani [2] was “inactive” throughout.

For `Cc1c(C(=O)N[C@@H](Cc2ccccc2)C(=O)C(=O)NCc2ccccn2)[nH]c2ccccc2c1=O`, the inhibition entry in the series with Leishmania donovani [1] and in the series with Leishmania donovani [2] was “inactive” in each case.

Regarding `COc1ccc(CNC(=O)C(=O)[C@H](Cc2ccccc2)NC(=O)c2[nH]c3ccccc3c(=O)c2C)cc1`, the inhibition entry with Leishmania donovani [1] was “inactive”. For the same molecule, the inhibition at 50 µM in the series on Leishmania donovani [2] worked out at 9%.

In the case of `Cc1c(C(=O)N[C@@H](Cc2ccccc2)[C@@H](O)C(=O)NCc2ccccn2)[nH]c2ccccc2c1=O`, the inhibition result with Leishmania donovani [1] is “inactive”. Also, in the series on Leishmania donovani [2], the inhibition at 50 µM came out at 12%.

Consider `COc1ccc(CNC(=O)[C@H](O)[C@H](Cc2ccccc2)NC(=O)c2[nH]c3ccccc3c(=O)c2C)cc1OC`, for which, in the series on Leishmania donovani [1], the inhibition entry is “inactive”. Besides, the inhibition at 50 µM in the series with Leishmania donovani [2] came to 23%.

Take `CNC(=O)[C@H](O)[C@H](Cc1ccccc1)NC(=O)c1[nH]c2ccccc2c(=O)c1C`: the inhibition at 25 µM in the series with Leishmania donovani [1] was determined as 1%. The inhibition at 50 µM in the series on Leishmania donovani [2] stood at 22%.

As to `Cc1c(C(=O)N[C@@H](Cc2ccccc2)[C@@H](O)C(=O)NCCc2ccccc2)[nH]c2ccccc2c1=O`, the inhibition result with Leishmania donovani [1] and with Leishmania donovani [2] was “inactive” each time.

In the case of `Cc1c(C(=O)N[C@@H](Cc2ccccc2)[C@@H](O)C(=O)NCCc2ccccn2)[nH]c2ccccc2c1=O`, the inhibition at 25 µM in the series on Leishmania donovani [1] was 8%. Further, the inhibition at 50 µM in the series with Leishmania donovani [2] worked out at 31%.

As for `Cc1c(C(=O)N[C@@H](Cc2ccccc2)C(=O)C(=O)NCc2ccc(F)cc2)[nH]c2ccccc2c1=O`, the inhibition result in the series with Leishmania donovani [1] and in the series with Leishmania donovani [2] was “inactive” each time.

For the molecule `CCNC(=O)C(=O)[C@H](Cc1ccccc1)NC(=O)c1[nH]c2ccccc2c(=O)c1C`, the inhibition result in the series with Leishmania donovani [1] and in the series on Leishmania donovani [2] was “inactive” throughout.

On to `CCCCCCCC/C=C\CCCCCCCCCCCCOP(=O)([O-])OCCC[N+](C)(C)C`, for which the CC50 at 72 h in series [3] stood at 2 µM; in series [4], 28 µM. In addition, the inhibition at 25 µM with Leishmania donovani [1] was found to be 106%. The inhibition at 50 µM in the series with Leishmania donovani [2] is 108%.

Turning to `COc1ccc(CNC(=O)[C@H](O)[C@H](Cc2ccccc2)NC(=O)c2[nH]c3ccccc3c(=O)c2C)cc1`, the inhibition entry in the series with Leishmania donovani [1] is “inactive”. Also, the inhibition at 50 µM with Leishmania donovani [2] was determined as 16%.

For `COc1ccc(CCNC(=O)C(=O)[C@H](Cc2ccccc2)NC(=O)c2[nH]c3ccccc3c(=O)c2C)cc1`, in the series on Leishmania donovani [1], the inhibition entry is “inactive”. Besides, the inhibition at 50 µM with Leishmania donovani [2] was found to be 23%.

Regarding `CNC(=O)C(=O)[C@H](Cc1ccccc1)NC(=O)c1[nH]c2ccccc2c(=O)c1C`, the inhibition result with Leishmania donovani [1] and with Leishmania donovani [2] was “inactive” each time.

`Cc1c(C(=O)N[C@@H](Cc2ccccc2)[C@@H](O)C(N)=O)[nH]c2ccccc2c1=O`: the CC50 at 72 h in series [3] and in series [4] was more than 200 µM in each case. The inhibition at 25 µM in the series on Leishmania donovani [1] came out at 17%. In addition, in the series on Leishmania donovani [2], the inhibition at 50 µM was found to be 51%.

As to `CCNC(=O)[C@H](O)[C@H](Cc1ccccc1)NC(=O)c1[nH]c2ccccc2c(=O)c1C`, in the series on Leishmania donovani [1], the inhibition entry is “inactive”. Moreover, the inhibition at 50 µM in the series on Leishmania donovani [2] is 1%.

Consider `Cc1c(C(=O)N[C@@H](Cc2ccccc2)[C@@H](O)C(=O)NCc2ccccc2)[nH]c2ccccc2c1=O`, for which the CC50 at 72 h is 93 µM in series [3] and more than 200 µM in series [4]. In addition, the inhibition at 25 µM with Leishmania donovani [1] came to 53%. In the series with Leishmania donovani [2], the inhibition at 50 µM was 91%.

Regarding `Cc1c(C(=O)N[C@@H](Cc2ccccc2)C(=O)C(=O)NC(C)C)[nH]c2ccccc2c1=O`, the inhibition entry in the series with Leishmania donovani [1] and in the series with Leishmania donovani [2] was “inactive” in each case.

As to `COc1ccc(CCNC(=O)[C@H](O)[C@H](Cc2ccccc2)NC(=O)c2[nH]c3ccccc3c(=O)c2C)cc1`, in the series with Leishmania donovani [1], the inhibition entry was “inactive”. The inhibition at 50 µM in the series on Leishmania donovani [2] is 13%.

Regarding `Cc1c(C(=O)N[C@@H](Cc2ccccc2)[C@@H](O)C(=O)NCc2ccc(F)cc2)[nH]c2ccccc2c1=O`, in the series on Leishmania donovani [1], the inhibition entry was “inactive”. Also, the inhibition at 50 µM in the series with Leishmania donovani [2] came out at 8%.

`Cc1c(C(=O)N[C@@H](Cc2ccccc2)C(=O)C(N)=O)[nH]c2ccccc2c1=O`: the inhibition entry in the series on Leishmania donovani [1] and in the series on Leishmania donovani [2] was “inactive” in each case.
